Source: patent publication US20230181542A1, “METHOD AND PHARMACEUTICAL COMPOSITION FOR TREATING CHRONIC KIDNEY DISEASE” (Chengdu WenDing Technology Development Co., Ltd., priority 2020, published 2023)
Where “and” joins values, the source holds several entries; their conditions need not be identical. Equal values may be shown once.

What was measured:
[1] = marketed drug, known side effects; cited from earlier work
[2] = tested on: rhesus monkeys with spontaneous chronic diabetic kidney disease; assay: Proteinuria (UACR, urinary Malb and Cr-U), 4 to 6 hour urine collection; assay type: in vivo, Macaca mulatta (Rhesus Macaque); settings: for UACR: Valsartan group 2.67 mg/kg oral, individual animals and Mean ± SD (baseline 61 ± 33); for UACR change rate / UACR decreased by an average of (compared with the baseline) / Malb / Cr-U: Valsartan group; for UACR change rate: individual animals and Mean ± SD, negative = decrease; for Malb: individual animals and Mean ± SD (baseline 76.1 ± 114.7); for Cr-U: individual animals and Mean ± SD (baseline 90.9 ± 108.5)
Protocol: The details of the dosing regime of each group are described below, wherein the route of administration was oral administration. The baseline period was 1 month, followed by continuous oral administration for 58 days. […] Urinary albumin excretion rate (UACR): 4 h to 6 hours urine was collected and detected for urinary microalbumin (Malb) and urinary creatinine (Cr-U), followed by calculation of UACR value. Detection was performed one time before administration, and at designated times (such as once at D30 and once at […]) after administration. UACR=Malb/Cr-U. Urine sample collection method: Animals were fasted overnight before the operation of collecting urine. On the day of operation, animals were transferred to a metabolic cage, followed by collecting all urine excreted within 4 to 6 hours into a urine collection bag. Detection method: see Tables 3-2 and 3-3 Effects on urinary albumin excretion rate (UACR) are shown in FIG. 1, FIG. 2 and Table 4-1. […]

[3] = tested on: rhesus monkeys with spontaneous chronic diabetic kidney disease; assay: Glomerular filtration rate eGFR calculated from Cr-P and CysC; assay type: in vivo, Macaca mulatta (Rhesus Macaque); settings: for eGFR change value: animals with eGFR 30 to 59, DOX+PMP+MTP groups 1# and 2# combined n = 5, Valsartan n = 3, Mean ± SD; for eGFR: Valsartan group, Mean ± SD (baseline 50 ± 7)
Protocol: (§1) The details of the dosing regime of each group are described below, wherein the route of administration was oral administration. The baseline period was 1 month, followed by continuous oral administration for 58 days.
Glomerular filtration rate eGFR: creatinine (Cr-P), blood urea nitrogen (BUN), cystatin (CysC) were detected to calculate the eGFR value. Detections were performed once in the baseline period before administration, and at designated times (such as D14, D28, D45, and D58, etc.) after administration. In accordance with reference literature (Levey A S, Stevens L A, Schmid C H et al. A new equation to estimate glomerular filtration rate. Ann Intern Med 2009; 150:604-612), the formula for calculating eGFR was as follows: […]
Blood sample collection method: Before the blood collection operation, an animal was fasted overnight without anesthesia. After the animals were acclimatized, the backboard was gently squeezed to restrain the animal, and blood was collected through the forearm vein. After collection, sterilized dry cotton ball was used to gently press the blood collection site to stop bleeding.
Results of eGFR are shown in FIG. 3, Table 4-2 and Table 4-3. eGFR values of 30 to 59 ml/min/1.73m^2 were selected and included to analyze the changes of glomerular filtration rate.

[4] = tested on: rhesus monkeys with spontaneous chronic diabetic kidney disease; assay: Renal function markers CysC, Cr-P and BUN in blood; assay type: in vivo, Macaca mulatta (Rhesus Macaque); settings: Valsartan group; for CysC: Mean ± SD (baseline 1.57 ± 0.10)
Protocol: The details of the dosing regime of each group are described below, wherein the route of administration was oral administration. The baseline period was 1 month, followed by continuous oral administration for 58 days. Glomerular filtration rate eGFR: creatinine (Cr-P), blood urea nitrogen (BUN), cystatin (CysC) were detected to calculate the eGFR value. Detections were performed once in the baseline period before administration, and at designated times (such as D14, D28, […], and […], etc.) after administration. In accordance with reference literature (Levey A S, Stevens L A, Schmid C H et al. A new equation to estimate glomerular filtration rate. Ann Intern Med 2009; 150:604-612), the formula for calculating eGFR was as follows: Blood sample collection method: Before the blood collection operation, an animal was fasted overnight without anesthesia. After the animals were acclimatized, the backboard was gently squeezed to restrain the animal, and blood was collected through the forearm vein. After collection, sterilized dry cotton ball was used to gently press the blood collection site to stop bleeding. [table] CysC is an endogenous marker that reflects changes in glomerular filtration rate. Cr-P has been used as the main index of renal function for more than 40 years. In this test, glomerular filtration rate eGFR is calculate by measuring CysC and Cr-P. Although BUN was first used as an evaluation index of renal function, it could not meet the requirements of endogenous GFR markers and was only used as an auxiliary index in this test.

[5] = tested on: rhesus monkeys with spontaneous chronic diabetic kidney disease; assay: Blood pressure (SBP/DBP) after anesthesia; assay type: in vivo, Macaca mulatta (Rhesus Macaque); settings: Valsartan group
Protocol: as §1
Blood pressure: blood pressure was detected after anesthesia, including systolic blood pressure (SBP), diastolic blood pressure (DBP), mean blood pressure (MBP) and heart rate (HR). Detection was carried out 1 time before administration and 1 time at D58 (end of administration).
Detection method: Animals were anesthetized by intramuscular injection of 15 mg/kg ketamine hydrochloride and then placed in a supine position, followed by being tied with a cuff of appropriate size according to the corresponding standard. A blood oxygen probe was clamped on a finger or toe (except the left hand) of the animal, with the red photosensitive surface on the side of the finger pad. The blood pressure of the animal was continuously detected 3 times in automatic mode with an interval of 1 minute. If the differences in the SBP, DBP and MBP of the three times were less than 15 mmHg, the measurement completed, otherwise the measurement repeated.
Detection indicators: systolic blood pressure (SBP), diastolic blood pressure (DBP), mean blood pressure (MBP) and heart rate (HR).
Instrument: GE B40i electrophysiological monitor.

## CCCN[C@H]1CCc2nc(N)sc2C1 [PMP, (S)-N6-propyl-4,5,6,7-tetrahydro-1,3-benzothiazole-2,6-diamine]
[1]
  daily dose at which the incidence of somnolence increases: above 1.5 mg

## CCCCC(=O)N(Cc1ccc(-c2ccccc2-c2nnn[nH]2)cc1)[C@H](C(=O)O)C(C)C [Valsartan]
[2]; D 30
  UACR: 59 mg/g and 84 mg/g and 20 mg/g and 21 mg/g and 46 ± 31 mg/g
  Malb: 51.3 mg/L and 199.8 mg/L and 13.4 mg/L and 5.9 mg/L and 67.6 ± 90.3 mg/L
  Cr-U: 87.5 mg/dL and 238.1 mg/dL and 68.3 mg/dL and 27.5 mg/dL and 105.3 ± 92.0 mg/dL
[2]; D 58
  UACR: 38 mg/g and 64 mg/g and 19 mg/g and 22 mg/g and 36 ± 20 mg/g
  Malb: 54.9 mg/L and 206.7 mg/L and 39.9 mg/L and 6.2 mg/L and 76.9 ± 88.9 mg/L
  Cr-U: 143.0 mg/dL and 323.6 mg/dL and 206.3 mg/dL and 28.2 mg/dL and 175.3 ± 123.4 mg/dL
[2]; Baseline-D 30
  UACR change rate: −27.11% and −14.25% and −33.78% and −42.53% and −29.41 ± 11.92%
[2]; Baseline-D 58
  UACR change rate: −52.26% and −34.73% (2×) and −41.10% and −40.71 ± 8.27%
[2]; D30
  UACR decreased by an average of (compared with the baseline): about 30%
[2]; D58, p<0.01 vs placebo
  UACR decreased by an average of (compared with the baseline): 40.71±8.27%
[3]; D 14 minus baseline
  eGFR change value: 3 ± 2 ml/min/1.73 m^2
[3]; D 28 minus baseline
  eGFR change value: 6 ± 7 ml/min/1.73 m^2
[3]; D 45 minus baseline
  eGFR change value: 5 ± 6 ml/min/1.73 m^2
[3]; D 58 minus baseline
  eGFR change value: 10±7 ml/min/1.73 m^2
[3]; D 14
  eGFR: 53 ± 7 ml/min/1.73 m^2
[3]; D 28
  eGFR: 56 ± 2 ml/min/1.73 m^2
[3]; D 45
  eGFR: 55 ± 1 ml/min/1.73 m^2
[3]; D 58
  eGFR: 60 ± 1 ml/min/1.73 m^2
[4]; D 14 (baseline 1.46 ± 0.29)
  CR-P: 1.26 ± 0.24 mg/dL
[4]; D 14 (baseline 41.9 ± 34.2)
  BUN: 27.1 ± 6.0 mg/dL
[4]; D 14
  CysC: 1.59 ± 0.10 mg/L
[4]; D 28 (baseline 1.46 ± 0.29)
  CR-P: 1.18 ± 0.13 mg/dL
[4]; D 28 (baseline 41.9 ± 34.2)
  BUN: 35.0 ± 16.6 mg/dL
[4]; D 28
  CysC: 1.53 ± 0.08 mg/L
[4]; D 45 (baseline 1.46 ± 0.29)
  CR-P: 1.18 ± 0.12 mg/dL
[4]; D 45 (baseline 41.9 ± 34.2)
  BUN: 37.9 ± 19.2 mg/dL
[4]; D 45
  CysC: 1.56 ± 0.09 mg/L
[4]; D 58 (baseline 1.46 ± 0.29)
  CR-P: 1.10 ± 0.08 mg/dL
[4]; D 58 (baseline 41.9 ± 34.2)
  BUN: 31.6 ± 11.3 mg/dL
[4]; D 58
  CysC: 1.48 ± 0.11 mg/L
[5]; D 58, Mean ± SD (baseline 71 ± 15)
  DBP: 63 ± 11 mmHg
[5]; D 58, Mean ± SD (baseline 135 ± 16)
  SBP: 123 ± 12 mmHg
[5]; D58, p<0.01 vs placebo
  DBP decreased by an average of (compared with the baseline): 8±6 mmHg
[5]; D58, p<0.05 vs placebo
  SBP decreased by an average of (compared with the baseline): 13±6 mmHg
[5]; D 58 vs baseline, Mean ± SD
  DBP change value: −8 ± 5 mmHg
  SBP change value: −13 ± 6 mmHg
